Data: BindingDB's records for doi:10.1016/j.bioorg.2016.12.008 (Fayoum University, 2017)
pIC50: −log10 of the molar value.

How the values were obtained:
[1] = target: T1, Prostaglandin G/H synthase 2 (Ovis aries, UniProt P79208); assay: In Vitro Cyclooxygenase (COX) Inhibition Assay
T1 sequence (P79208 whole entry): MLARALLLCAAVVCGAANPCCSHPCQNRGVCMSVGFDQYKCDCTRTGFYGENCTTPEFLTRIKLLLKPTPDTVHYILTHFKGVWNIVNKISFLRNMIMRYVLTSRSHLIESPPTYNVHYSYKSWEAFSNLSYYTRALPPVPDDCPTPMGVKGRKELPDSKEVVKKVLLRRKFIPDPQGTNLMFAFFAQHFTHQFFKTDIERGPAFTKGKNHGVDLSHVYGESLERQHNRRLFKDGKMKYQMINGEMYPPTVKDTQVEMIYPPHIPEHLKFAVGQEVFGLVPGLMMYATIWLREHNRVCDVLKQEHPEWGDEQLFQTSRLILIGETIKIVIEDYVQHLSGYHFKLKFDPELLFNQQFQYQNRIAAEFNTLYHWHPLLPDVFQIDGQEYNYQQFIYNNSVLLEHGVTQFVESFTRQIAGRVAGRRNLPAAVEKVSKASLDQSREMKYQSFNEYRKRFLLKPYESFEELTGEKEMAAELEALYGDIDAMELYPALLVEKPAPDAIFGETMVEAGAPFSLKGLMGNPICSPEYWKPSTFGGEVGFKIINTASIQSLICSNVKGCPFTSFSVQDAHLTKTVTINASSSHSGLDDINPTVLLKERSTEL
Experimental: (§1) Different concentrations of either celecoxib or tested compounds were incubated with the enzymes for a period of 5 min at 25 °C. After the incubation period the colorimetric substrate and arachidonic acid were added after that the absorbance was measured at 590 nm using plate reader.

[2] = target: T2, Prostaglandin G/H synthase 1 (Ovis aries, UniProt P05979); assay: In Vitro Cyclooxygenase (COX) Inhibition Assay
T2 sequence (P05979 whole entry): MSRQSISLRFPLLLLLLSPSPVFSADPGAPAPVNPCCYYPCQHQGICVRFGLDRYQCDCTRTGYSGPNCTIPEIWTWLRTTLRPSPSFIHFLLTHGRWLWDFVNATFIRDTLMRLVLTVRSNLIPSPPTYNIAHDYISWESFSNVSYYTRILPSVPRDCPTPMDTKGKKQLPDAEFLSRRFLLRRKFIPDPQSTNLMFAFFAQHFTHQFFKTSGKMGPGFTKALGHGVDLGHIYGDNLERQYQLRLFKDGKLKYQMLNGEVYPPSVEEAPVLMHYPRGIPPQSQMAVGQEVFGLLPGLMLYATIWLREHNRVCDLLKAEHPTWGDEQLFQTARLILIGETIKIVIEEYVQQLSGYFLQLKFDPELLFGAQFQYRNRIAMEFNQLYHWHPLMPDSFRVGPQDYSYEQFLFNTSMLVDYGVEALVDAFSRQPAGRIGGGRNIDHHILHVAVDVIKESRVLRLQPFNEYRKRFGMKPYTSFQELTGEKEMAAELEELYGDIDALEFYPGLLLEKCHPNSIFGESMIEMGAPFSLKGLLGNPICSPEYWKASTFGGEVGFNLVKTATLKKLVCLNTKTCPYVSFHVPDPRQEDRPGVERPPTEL
Experimental: as §1

| pIC50 [1] | pIC50 [2] | SMILES |
| --- | --- | --- |
| 5.47 | 4.88 | CC(C)Cc1ccc(-c2cc(-c3ccccc3)c(C#N)c(=O)[nH]2)cc1 [6-(4-Isobutylphenyl)-2-oxo-4-phenyl-1,2-dihydropyridine-3-carbonitrile (4g)] |
| 5.54 | 4.89 | Cc1ccc(-c2cc(-c3ccc([N+](=O)[O-])cc3)[nH]c(=O)c2C#N)cc1 [6-(4-Nitrophenyl)-2-oxo-4-(p-tolyl)-1,2-dihydropyridine-3-carbonitrile (4b)] |
| 5.46 | 4.78 | CS(=O)(=O)Nc1ccc(C2=NN(c3ccc(S(N)(=O)=O)cc3)C(c3ccco3)C2)cc1 (stereo not drawn) [1-(4-Aminosulfonylphenyl)-5-(2-furyl)-3-(4-methanesulfonylaminophenyl)-4,5-dihydro-1H-pyrazole (6e)] |
| 5.62 | 5.01 | CS(=O)(=O)Nc1ccc(C2=NN(c3ccc(S(N)(=O)=O)cc3)C(c3ccc(Cl)cc3)C2)cc1 (stereo not drawn) [1-(4-Aminosulfonylphenyl)-5-(4-chlorophenyl)-3-(4-methanesulfonylaminophenyl)-4,5-dihydro-1H-pyrazole (6c)] |
| 5.12 | 4.63 | Cc1ccc(C2CC(c3ccc(NS(C)(=O)=O)cc3)=NN2c2ccc(S(N)(=O)=O)cc2)cc1 (stereo not drawn) [1-(4-Aminosulfonylphenyl)-3-(4-methanesulfonylaminophenyl)-5-(4-tolyl)-4,5-dihydro-1H-pyrazole (6b)] |
| 5.54 | 5.01 | CS(=O)(=O)Nc1ccc(-c2cc(-c3ccco3)c(C#N)c(=O)[nH]2)cc1 [4-(2-Furyl)-6-(4-methanesulfonylaminophenyl)-2-oxo-1,2-dihydropyridine-3-carbonitrile (4q)] |
| 5.34 | 4.87 | N#Cc1c(-c2ccc(F)cc2)cc(-c2ccc([N+](=O)[O-])cc2)[nH]c1=O [4-(4-Fluorophenyl)-6-(4-nitrophenyl)-2-oxo-1,2-dihydropyridine-3-carbonitrile (4d)] |
| 5.41 | 4.73 | CS(=O)(=O)Nc1ccc(C2=NN(c3ccc(S(N)(=O)=O)cc3)C(c3ccc(F)cc3)C2)cc1 (stereo not drawn) [1-(4-Aminosulfonylphenyl)-5-(4-fluorophenyl)-3-(4-methanesulfonylaminophenyl)-4,5-dihydro-1H-pyrazole (6d)] |
| 6.06 | 5.17 | N#Cc1c(-c2cccs2)cc(-c2ccc([N+](=O)[O-])cc2)[nH]c1=O [6-(4-nitrophenyl)-2-oxo-4-(thiophen-2-yl)-1,2-dihydropyridine-3-carbonitrile (4f)] |
| 5.57 | 4.95 | Cc1ccc(-c2cc(-c3ccc(CC(C)C)cc3)[nH]c(=O)c2C#N)cc1 [6-(4-Isobutylphenyl)-2-oxo-4-(p-tolyl)-1,2-dihydropyridine-3-carbonitrile (4h)] |
| 5.95 | 5.14 | CC(C)Cc1ccc(-c2cc(-c3ccco3)c(C#N)c(=O)[nH]2)cc1 [4-(2-Furyl)-6-(4-isobutylphenyl)-2-oxo-1,2-dihydropyridine-3-carbonitrile (4k)] |
| 5.43 | 4.90 | CC(C)Cc1ccc(-c2cc(-c3cccs3)c(C#N)c(=O)[nH]2)cc1 [6-(4-Isobutylphenyl)-2-oxo-4-(2-thienyl)-1,2-dihydropyridine-3-carbonitrile (4l)] |
| 6.03 | 5.19 | CC(C)Cc1ccc(-c2cc(-c3ccc(F)cc3)c(C#N)c(=O)[nH]2)cc1 [4-(4-Fluorophenyl)-6-(4-isobutylphenyl)-2-oxo-1,2-dihydropyridine-3-carbonitrile (4j)] |
| 4.99 | 4.49 | CS(=O)(=O)Nc1ccc(-c2cc(-c3cccs3)c(C#N)c(=O)[nH]2)cc1 [6-(4-Methanesulfonylaminophenyl)-2-oxo-4-(2-thienyl)-1,2-dihydropyridine-3-carbonitrile (4r)] |
| 5.60 | 4.97 | CS(=O)(=O)Nc1ccc(-c2cc(-c3ccc(F)cc3)c(C#N)c(=O)[nH]2)cc1 [4-(4-Fluorophenyl)-6-(4-methanesulfonylaminophenyl)-2-oxo-1,2-dihydropyridine-3-carbonitrile (4p)] |
| 5.89 | 5.12 | CS(=O)(=O)Nc1ccc(C2=NN(c3ccc(S(N)(=O)=O)cc3)C(c3ccccc3)C2)cc1 (stereo not drawn) [1-(4-Aminosulfonylphenyl)-3-(4-methanesulfonylaminophenyl)-5-phenyl-4,5-dihydro-1H-pyrazole (6a)] |
| 5.42 | 4.91 | N#Cc1c(-c2ccccc2)cc(-c2ccc([N+](=O)[O-])cc2)[nH]c1=O [6-(4-nitrophenyl)-2-oxo-4-phenyl-1,2-dihydropyridine-3-carbonitrile (4a)] |
| 5.14 | 4.63 | N#Cc1c(-c2ccc(Cl)cc2)cc(-c2ccc([N+](=O)[O-])cc2)[nH]c1=O [4-(4-chlorophenyl)-6-(4-nitrophenyl)-2-oxo-1,2-dihydropyridine-3-carbonitrile (4c)] |
| 5.89 | 5.07 | Cc1ccc(-c2cc(-c3ccc(NS(C)(=O)=O)cc3)[nH]c(=O)c2C#N)cc1 [6-(4-Methanesulfonylaminophenyl)-2-oxo-4-(4-tolyl)-1,2-dihydropyridine-3-carbonitrile (4n)] |
| 5.29 | 4.85 | CC(C)Cc1ccc(-c2cc(-c3ccc(Cl)cc3)c(C#N)c(=O)[nH]2)cc1 [4-(4-Chlorophenyl)-6-(4-isobutylphenyl)-2-oxo-1,2-dihydropyridine-3-carbonitrile (4i)] |
| 5.92 | 5.05 | N#Cc1c(-c2ccco2)cc(-c2ccc([N+](=O)[O-])cc2)[nH]c1=O [4-(2-Furyl)-6-(4-nitrophenyl)-2-oxo-1,2-dihydropyridine-3-carbonitrile (4e)] |
| 5.80 | 5.03 | CS(=O)(=O)Nc1ccc(-c2cc(-c3ccccc3)c(C#N)c(=O)[nH]2)cc1 [6-(4-Methanesulfonylaminophenyl)-2-oxo-4-phenyl-1,2-dihydropyridine-3-carbonitrile (4m)] |
| 5.47 | 4.82 | CS(=O)(=O)Nc1ccc(-c2cc(-c3ccc(Cl)cc3)c(C#N)c(=O)[nH]2)cc1 [4-(4-Chlorophenyl)-6-(4-methanesulfonylaminophenyl)-2-oxo-1,2-dihydropyridine-3-carbonitrile (4o)] |
| 5.11 | 4.60 | CS(=O)(=O)Nc1ccc(C2=NN(c3ccc(S(N)(=O)=O)cc3)C(c3cccs3)C2)cc1 (stereo not drawn) [1-(4-Aminosulfonylphenyl)-5-(2-thienyl)-3-(4-methanesulfonylaminophenyl)-4,5-dihydro-1H-pyrazole (6f)] |
